Results published in patent publication US7378384B2, “WT1 substitution peptides” (International Institute of Cancer Immunology, Inc., priority 2002, dated 2008).
“Also recorded” adds a separate entry of the source. Non-standard residues stand in square brackets, D forms with d. No end group written: not given here. Cit = NC(=O)NCCC[C@H](N)C(=O)O; Orn = NCCC[C@H](N)C(=O)O; Abu = CC[C@H](N)C(=O)O

How the values were obtained:
[1] = system: HLA-A2402/K^b transgenic mice; assay: In vivo immunogenicity (CTL-inducing activity): immunization of HLA-A2402/K^b transgenic mice, 51Cr release assay of in vitro restimulated splenocytes; set-up: species or system mouse
Protocol: In vivo immunogenicity of each antigen peptide was evaluated using the HLA-A2402/K^b transgenic mice. The preparation of the transgenic mice and the determination of in vivo immunogenicity were conducted according to WO 02/47474, and Int J. Cancer. 100, 565-570 (2002) that describe them in detail.
(§1) The non-substituted type peptide and the substituted type peptides as described above were synthesized using Fmoc method. The peptides synthesized were each adjusted to 40 mg/ml in DMSO, and each diluted with a sterilized water to 2.4 mg/ml. They were then mixed with a 1.27 parts of Freund's incomplete adjuvant (ISA51) using a glass syringe to prepare a water-in-oil emulsion. The resultant emulsion (200 μl) was injected into the HLA-A2402/K^b transgenic mouse subcutaneously in the base of the tail for immunization.
Seven days after the immunization, the spleen was removed and grounded on the frosted part of glass slide, and splenocytes were recovered and prepared. A portion of the splenocytes undergone hemolysis treatment with an ACK buffer (0.15 M NH4Cl, 10 mM KHCO3, 0.1 mM EDTA, pH 7.2-7.4) was pulsed with the above-mentioned peptide compositions at 100 μg/ml for 1 hour, and seeded into a 24-well plate at 7×10^5/well. Simultaneously, splenocytes not pulsed with any peptide (7×10^6/well) were added together, and stimulated in vitro and incubated at 37° C. for 5 to 6 days. The in vitro stimulation was carried out in RPMI1640 medium supplemented with 10% FCS, 10 mM HEPES, 20 mM L-glutamine, 1 mM sodium pyruvate, 1 mM MEM nonessential amino acids, 1% MEM vitamin and 55 μM 2-mercaptoethanol.
The test for cytotoxic activity was conducted according to the conventional manner. EL4-A2402/K^b cells obtained by transforming EL-4 cells (DAINIPPON PHARMACEUTICAL CO., LTD., Catalogue No. 06-039) with an expression vector encoding HLA-A2402/K^b, and the EL4-A2402/K^b cells pulsed with peptide A, B, C, D, E, or F were used as target cells (T). The EL4-A2402/K^b cells were prepared in a similar manner to the preparation of Jurkat-A2402/K^b cells described in WO 02/47474.
These cells were labeled with ^51Cr (3.7 MBq/10^6 cells) and pulsed with the peptide at 100 μg/ ml for an hour (The labeling was carried out over 2 hours, and 1 hour after the initiation of labeling, the peptide was added). Splenocytes in vitro stimulated and incubated were used as effector cells (E). They were combined with the target cells at various ratios, and ^51Cr release assay (J. Immunol., 1997; 159: 4753) was conducted to determine the cytotoxic activity of the effector cells. […]
as §1, with “The” for “The non-substituted type peptide and the”, “peptides” for “peptides as described above”, “physiological saline” for “sterilized water”
The test for cytotoxic activity was conducted according to the conventional manner. EL4-A2402/K^b cells obtained by transforming EL-4 cells with an expression vector encoding HLA-A2402/K^b, and the EL4-A2402/K^b cells pulsed with peptide K, L, or M were used as target cells (T).
These cells were labeled with ^51Cr (3.7 MBq/10^6 cells) and pulsed with the peptide at 100 μg/ml for an hour (The labeling was carried out over 2 hours, and 1 hour after the initiation of labeling, the peptide was added). Splenocytes in vitro stimulated and incubated were used as effector cells (E). They were combined with the target cells at various ratios, and ^51Cr release assay (J. Immunol., 1997; 159: 4753) was conducted to determine the cytotoxic activity of the effector cells.

CTLs = settings: Clin. Cancer. Res. 8: 2626, 2002, and WO 00/06602; cited from earlier work
HLA-A24 antigen = settings: compared with the natural type peptide WT1235-243; cited from earlier work
[2] = Example 3, peptide with KLH in ISA51 emulsion s.c., target EL4-A2402/K^b cells pulsed with the peptide at 20 μg/ml vs not pulsed
[3] = Example 4, peptide in saline/ISA51 emulsion s.c., target EL4-A2402/K^b cells pulsed with the peptide at 100 μg/ml vs not pulsed
[4] = Example 1, s.c. immunization with peptide in ISA51 water-in-oil emulsion, splenocytes 7 days after, target EL4-A2402/K^b cells pulsed with the peptide at 100 μg/ml vs not pulsed

## Orn Tyr Thr Trp Asn Gln Met Asn Leu ([Orn]YTWNQMNL) [peptide I]
[1]; [2]
  immunogenicity (activity to induce CTLs); cytotoxic activity (% Specific Lysis) vs E/T ratio: have an immunogenicity (an activity to induce CTLs); also recorded: specific CTLs were induced

## CMTWNQMNL [WT1235-243]
CTLs
  activity to induce CTLs in HLA-A24-restricted manner: having an activity to induce CTLs in HLA-A24-restricted manner

## FYTWNQMNL [peptide L]
[1]; [3]
  immunogenicity (activity to induce CTLs); cytotoxic activity (% Specific Lysis) vs E/T ratio: have an immunogenicity (an activity to induce CTLs); also recorded: specific CTLs were induced

## SMTWNQMNL [peptide G]
[1]; [2]
  immunogenicity (activity to induce CTLs); cytotoxic activity (% Specific Lysis) vs E/T ratio: have an immunogenicity (an activity to induce CTLs); also recorded: specific CTLs were induced

## RYTWNQMNL [peptide E]
[1]; [4]
  immunogenicity (activity to induce CTLs); cytotoxic activity (% Specific Lysis) vs E/T ratio: specific CTLs were induced

## AMTWNQMNL [peptide H]
[1]; Example 3, peptide with KLH in ISA51 emulsion s.c., target Jurkat-A2402/K^b cells pulsed with the peptide at 20 μg/ml vs not pulsed
  immunogenicity (activity to induce CTLs); cytotoxic activity (% Specific Lysis) vs E/T ratio: have an immunogenicity (an activity to induce CTLs); also recorded: specific CTLs were induced

## Cit Tyr Thr Trp Asn Gln Met Asn Leu ([Cit]YTWNQMNL) [peptide J]
[1]; [2]
  immunogenicity (activity to induce CTLs); cytotoxic activity (% Specific Lysis) vs E/T ratio: have an immunogenicity (an activity to induce CTLs); also recorded: specific CTLs were induced

## Abu-Tyr-Thr-Trp-Asn-Gln-Met-Asn-Leu ([Abu]YTWNQMNL) [peptide D]
[1]; [4]
  immunogenicity (activity to induce CTLs); cytotoxic activity (% Specific Lysis) vs E/T ratio: specific CTLs were induced

## KYTWNQMNL [peptide F]
[1]; [4]
  immunogenicity (activity to induce CTLs); cytotoxic activity (% Specific Lysis) vs E/T ratio: specific CTLs were induced

## NYTWNQMNL [peptide M]
[1]; [3]
  immunogenicity (activity to induce CTLs); cytotoxic activity (% Specific Lysis) vs E/T ratio: have an immunogenicity (an activity to induce CTLs); also recorded: specific CTLs were induced

## SYTWNQMNL [peptide B]
[1]; [4]
  immunogenicity (activity to induce CTLs); cytotoxic activity (% Specific Lysis) vs E/T ratio: specific CTLs were induced

## LYTWNQMNL [peptide K]
[1]; [3]
  immunogenicity (activity to induce CTLs); cytotoxic activity (% Specific Lysis) vs E/T ratio: have an immunogenicity (an activity to induce CTLs); also recorded: specific CTLs were induced

## AYTWNQMNL [peptide C]
[1]; [4]
  immunogenicity (activity to induce CTLs); cytotoxic activity (% Specific Lysis) vs E/T ratio: specific CTLs were induced

## CYTWNQMNL [peptide A, reference compound]
[1]; [4]
  immunogenicity (activity to induce CTLs); cytotoxic activity (% Specific Lysis) vs E/T ratio: specific CTLs were induced
HLA-A24 antigen
  binding activity to the HLA-A24 antigen: higher binding activity to the HLA-A24 antigen than the natural type peptide
